Where two headings read alike, the source gives them in different places.
Tests used:
[1] = target: T1, HCV NS5B RdRp genotype 1b (Hepatitis C virus genotype 1b, UniProt Q9WMX2); test: Standard HCV NS5B RdRp enzyme assay; assay type: biochemical; conditions: HCV NS5B RdRp genotype 1b, read-out: IC50
T1 construct: The protein was expressed with an 18 amino acid C-terminal truncation to enhance the solubility; made in house; host or cells: E. coli BL21(DE3), pET21a vector
Procedure, shortened: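 Radiometric SPA measuring 3H-UMP incorporation on polyA/biotin-oligo-dT12 (6 nM/180 nM), 0.29 μM total UTP. Enzyme: NS5B 1b lacking last 18 residues, 28 nM final, 30° C for 60 min in 20 mM Hepes pH 7.5, 2.5 mM MgCl2, 2% DMSO. IC50 from seven-point curves.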

[2] = tested on: HCV replicon cells; test: HCV replicon FRET / luciferase assay (96-well plates); assay type: cell-based; conditions: Hepatitis C virus, HCV replicon, read-out: EC50
Procedure, shortened: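 Readout was NS3 protease cleavage of an EDANS/DABCYL FRET peptide (20 μM final) in lysed HCV replicon cells, or Renilla luciferase in reporter replicons. Background came from wells with the highest level of control protease inhibitor. EC50 marked the concentration giving 50% signal reduction.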

T1 sequence (Q9WMX2 2420-2992): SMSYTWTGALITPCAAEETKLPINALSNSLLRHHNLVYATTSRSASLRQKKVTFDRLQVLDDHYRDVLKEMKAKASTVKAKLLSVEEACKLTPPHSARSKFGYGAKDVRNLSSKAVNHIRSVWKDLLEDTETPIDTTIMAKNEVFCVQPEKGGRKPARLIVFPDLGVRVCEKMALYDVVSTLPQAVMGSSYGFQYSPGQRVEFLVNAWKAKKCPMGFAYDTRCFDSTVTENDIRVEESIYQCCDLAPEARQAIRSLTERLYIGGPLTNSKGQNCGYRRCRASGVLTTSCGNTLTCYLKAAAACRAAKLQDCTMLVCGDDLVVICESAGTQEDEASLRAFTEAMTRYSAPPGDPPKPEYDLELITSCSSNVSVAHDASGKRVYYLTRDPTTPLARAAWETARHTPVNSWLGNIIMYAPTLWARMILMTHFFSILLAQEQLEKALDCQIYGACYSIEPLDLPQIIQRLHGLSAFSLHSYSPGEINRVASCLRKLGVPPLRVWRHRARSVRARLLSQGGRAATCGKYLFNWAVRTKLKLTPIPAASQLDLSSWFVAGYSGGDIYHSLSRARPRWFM

| SMILES | IC50 ([1]; Table 1a) [nM] | EC50 ([2]; Table 1a) [nM] | IC50 ([1]; Table 1b) [nM] | EC50 ([2]; Table 1b) [nM] | further results |
| --- | --- | --- | --- | --- | --- |
| CNC(=O)c1c(-c2ccc(F)cc2)oc2ccc(-c3cccc(C(=O)Nc4ccon4)c3)cc12 | 250 to 1000 | 1000 to 10000 | – | – | – |
| CNC(=O)c1c(-c2ccc(F)cc2)oc2ccc(-c3ccc(-c4ccc(C(N)=O)cc4)c(C(=O)NCC(C)C)c3)cc12 | – | – | < 250 | > 10000 | – |
| CNC(=O)c1c(-c2ccc(F)cc2)oc2ccc(-c3cccc(C(=O)N4CCC(c5ccc(F)cc5)C4)c3)cc12 (stereo not drawn) | 250 to 1000 | 250 to 1000 | – | – | – |
| CNC(=O)c1c(-c2ccc(F)cc2)oc2cc(N)c(-c3cccc(C(=O)NC(C)(C)c4ccccc4)c3)cc12 [drawing 94] | < 250 | < 250 | – | – | – |
| CNC(=O)c1c(-c2ccc(F)cc2)oc2ccc(-c3cccc(C(=O)N4CCCCC4C)c3)cc12 (stereo not drawn) [drawing 208] | 250 to 1000 | 1000 to 10000 | – | – | – |
| CNC(=O)c1c(-c2ccc(F)cc2)oc2ccc(-c3cc(C(=O)NCC(C)C)ccc3OCc3ccc(C(F)(F)F)cn3)cc12 | – | – | > 10000 | > 10000 | – |
| CNC(=O)c1c(-c2ccc(F)cc2)oc2ccc(-c3cccc(C(=O)Nc4ccccc4OC)c3)cc12 | 250 to 1000 | < 250 | – | – | – |
| CNC(=O)c1c(-c2ccc(F)cc2)oc2ccc(-c3cccc(C(=O)N[C@H](CO)Cc4c[nH]cn4)c3)cc12 | 1000 to 10000 | 1000 to 10000 | – | – | – |
| CNC(=O)c1c(-c2ccc(F)cc2)oc2ccc(-c3cc(C(=O)NCC(C)C)ccc3OCC(F)F)cc12 | – | – | 250 to 1000 | < 250 | – |
| CNC(=O)c1c(-c2ccc(F)cc2)oc2ccc(-c3cccc(C(=O)Nc4cccc(O)c4)c3)cc12 | 1000 to 10000 | 1000 to 10000 | – | – | – |
| CNC(=O)c1c(-c2ccc(F)cc2)oc2ccc(-c3cccc(S(=O)(=O)NC(C)(C)C)c3)cc12 | > 4000 | > 10000 | – | – | – |
| CNC(=O)c1c(-c2ccc(F)cc2)oc2ccc(-c3cc(OCC4CCC4)cc(C(=O)NCC(C)C)c3)cc12 | – | – | > 10000 | 1000 to 10000 | – |
| CNC(=O)c1c(-c2ccc(F)cc2)oc2ccc(-c3cccc(C(=O)Nc4ccccc4Cl)c3)cc12 | 1000 to 10000 | 1000 to 10000 | – | – | – |
| CNC(=O)c1c(-c2ccc(F)cc2)oc2ccc(-c3cccc(C(=O)NCc4ccccn4)c3)cc12 | < 250 | 250 to 1000 | – | – | – |
| CNC(=O)c1c(-c2ccc(F)cc2)oc2ccc(-c3cccc(C(=O)Nc4cccc(C)c4)c3)cc12 | 250 to 1000 | 250 to 1000 | – | – | – |
| CNC(=O)c1c(-c2ccc(F)cc2)oc2ccc(-c3cccc(C(=O)N4CCCCC4C)c3)cc12 (stereo not drawn) [drawing 611] | – | – | – | – | IC50 ([1]; untitled table after Table 1b): 290 nM; EC50 ([2]; untitled table after Table 1b, values without asterisk): 1130 nM |
| CNC(=O)c1c(-c2ccc(F)cc2)oc2ccc(-c3cccc(C(=O)NC4(c5ccccc5)CCC4)c3)cc12 | < 250 | < 250 | – | – | – |
| CNC(=O)c1c(-c2ccc(F)cc2)oc2ccc(-c3cccc(CCC(=O)O)c3)cc12 | 1000 to 10000 | > 10000 | – | – | – |
| CNC(=O)c1c(-c2ccc(F)cc2)oc2ccc(-c3cc(C(=O)NC4(c5nnc(C(C)C)[nH]5)CC4)ccc3C)cc12 | – | – | < 250 | < 250 | – |
| CCC(NC(=O)c1ccc(F)c(-c2cc3c(C(=O)NC)c(-c4ccc(F)cc4)oc3cc2N)c1)c1ccccc1 (stereo not drawn) | – | – | < 250 | < 250 | – |
| CNC(=O)c1c(-c2ccc(F)cc2)oc2ccc(-c3ccc(C(=O)N(C)CCO)cc3)cc12 | 1000 to 10000 | > 10000 | – | – | – |
| CNC(=O)c1c(-c2ccc(F)cc2)oc2ccc(-c3cccc(C(=O)NC(C)(C)C(=O)Nc4cc(C)[nH]n4)c3)cc12 | – | – | < 250 | < 250 | – |
| CNC(=O)c1c(-c2ccc(F)cc2)oc2ccc(-c3cccc(C(=O)NC4(c5ccc(Cl)cc5)CC4)c3)cc12 | – | – | < 250 | < 250 | – |
| CNC(=O)c1c(-c2ccc(F)cc2)oc2ccc(-c3ccc(C(=O)N(C)C4CCN(C)C4)cc3)cc12 (stereo not drawn) | > 10000 | 1000 to 10000 | – | – | – |
| CNC(=O)c1c(-c2ccc(F)cc2)oc2ccc(-c3cc(OCCc4cccnc4)cc(C(=O)NCC(C)C)c3)cc12 | – | – | > 10000 | 1000 to 10000 | – |
| CNC(=O)c1c(-c2ccc(F)cc2)oc2ccc(-c3ccc(S(=O)(=O)NC)cc3)cc12 | > 10000 | 1000 to 10000 | – | – | – |
| CNC(=O)c1c(-c2ccc(F)cc2)oc2ccc(-c3cc(C(=O)NC4(c5cnccn5)CC4)c(OC)cc3C)cc12 | – | – | – | – | IC50 ([1]; Table 1d (class symbols)): 1 to 250 nM; EC50 ([2]; 24 h, Table 1d (class symbols)): 1 to 250 nM |
| CNC(=O)c1c(-c2ccc(F)cc2)oc2ccc(-c3cccc(C#N)c3)cc12 | > 10000 | 250 to 1000 | – | – | – |
| CNC(=O)c1c(-c2ccc(F)cc2)oc2cc(N(CCO)S(C)(=O)=O)c(-c3cccc(C(=O)NC(C)(C)c4ccc(F)cc4)c3)cc12 | – | – | < 250 | < 250 | – |
| CNC(=O)c1c(-c2ccc(F)cc2)oc2ccc(-c3cc(C(=O)NC4(c5noc(C)n5)CC4)ccc3C)cc12 | – | – | < 20 | < 250 | – |
